2 substances from patent US11136613B2, “Antibacterial polypeptide libraries and methods for screening the same” (priority 2015, dated 2021) can be followed below.

Common to all, as to assay type: cell-based
The test system of assay [1] is wild type E. coli strain W3110. To be noted: for cell lysis measured by decrease in culture optical density after IPTG induction: surface displayed peptide, E. coli W3110, IPTG added.
Another assay relates to E. coli. Description: Co-culture of 2× tether+cecropin P1 expressing E. coli and empty vector E. coli, CFU plating and plasmid qPCR. To be noted: 3 hours.
Another assay deals with A. baumannii. Description: Surface expression of 2× tether+cecropin P1 or HA in A. baumannii. To be noted: 2× tether surface expression. An excerpt: FIG. 3: Surface expression of 2× tether+cecropin P1 or HA in A. baumannii. Addition of IPTG leads to rapid lysis of cecropin P1 containing A. baumannii.
The platform uses a plasmid with a broad host range origin of replication offering flexibility to identify antimicrobial peptides in many gram-negative bacteria. For example, A. baumannii is a gram-negative, hospital-associated pathogen that quickly acquires antibiotic resistance. […] The selective marker on this plasmid can be changed to allow its use in bacteria with different antibiotic resistant profiles.

The next assay relates to E. coli strain WD101. The settings on record: surface displayed peptide, 2× tether, 0.1 mM IPTG.

Take Dermaseptin: in assay [1], the “cell lysis measured by decrease in culture optical density after IPTG induction” value was “same impact on cell growth”.

Turning to “cecropin P1 (SWLSKTAKKLENSAKKRISEGIAIAIQGGPR; Cecropin-P1; UniProt P14661 14-44, looked up) [known antimicrobial peptide that lyses many gram-negative bacteria through disruption of the outer membrane; positive control]”, the “difference in recoverable colony forming units between peptide expressing and control bacteria” value in the assay with E. coli (co-culture in equal ratio, 0.1 mM IPTG) is given as 2-3 log. In addition, the “decrease of ratio of peptide encoding plasmid to empty vector (qPCR)” value with E. coli (co-culture, 0.1 mM IPTG induction) was around 50 fold. The “lysis of A. baumannii after addition of IPTG” value in the assay with A. baumannii is on record as “rapid lysis”. Further, the “cell lysis in resistant strain WD101 compared with parental strain W3110” value in the assay with E. coli strain WD101 is recorded as “less cell lysis”. The “cell lysis measured by decrease in culture optical density after IPTG induction” value in assay [1] was “begin to lyse”. Moreover, in assay [1] (two (2×) tandem low-complexity-region protein tethers, versus 0 and 1× tether, 0.1 mM IPTG), the “efficiency of cell lysis depending on tether” value was “most efficient lysis”.
